Laboratory results reported in patent US10881649B2, “Therapeutic agent or preventive agent for alopecia areata” (Toray Industries, Inc., priority 2017, dated 2021).

Tests used:
[1] = system: mouse alopecia areata model; experiment: Symptom-suppressing effect on a mouse alopecia areata model (therapeutic protocol); type: in vivo, C3H/HeJ mice; settings: Day 91; 10 mg/kg orally once daily Day 49 to Day 90; n=6; vehicle group 9.2±0.83; Day 49 mean 3.6±0.66
Experimental: The effect of cyclic amine derivative (I) or a pharmacologically acceptable salt thereof in a mouse alopecia areata model was evaluated using increase in the hair loss score as an index of worsening of symptoms. The mouse alopecia areata model was prepared using the same method as in Example 73.
In other words, female C3H/HeJ mice (CLEA Japan, Inc.) with spontaneous hair loss in 70% or more of the body surface were used as donor mice. The donor mice were euthanized by cervical dislocation, and then the inguinal, axilla, and auricular lymph nodes were aseptically removed. The lymph nodes were filtered through a 70 μm cell strainer to isolate lymphocytes. The lymphocytes were washed with Advanced RPMI media (containing 10% fetal bovine serum, 2 mM Gluta Max, and 100 U/mL penicillin streptomycin), and then suspended in Advanced RPMI media to which Human rIL-2 (Roche; final concentration of 30 U/mL), Mouse rIL-7 (R&D systems, Inc.; final concentration of 25 ng/mL), and Mouse rIL-15 (R&D systems, Inc.; final concentration of 50 ng/mL) were added so that the concentration was 2×10^6 cells/mL. […]
On Day 49, grouping was performed using the mouse hair loss score calculated in the same manner as in Example 73 as an index (the hair loss score on Day 49 (mean±standard error): 3.6±0.66). […]
On Day 91, the mouse hair loss score was calculated in the same manner as in Example 73. […]

[2] = system: mouse alopecia areata model; experiment: Symptom-suppressing effect on a mouse alopecia areata model (preventive protocol); type: in vivo, C3H/HeJ mice; settings: for hair loss score (mean±standard error): Day 63, 10 mg/kg orally once daily Day 0 to Day 62, n=10, vehicle group 3.2±1.13; for range of hair loss (FIG. 1): abdomen on Day 63, compared with the disease group (vehicle treatment group), 10 mg/kg orally once daily
Experimental: The effect of cyclic amine derivative (I) or a pharmacologically acceptable salt thereof in a mouse alopecia areata model was evaluated using increase in the hair loss score as an index of worsening of symptoms. The mouse alopecia areata model was prepared by partially modifying the method by Wang et al. (Journal of Investigative Dermatology, 2015, Vol. 135, p. 2530-2532).
Female C3H/HeJ mice (CLEA Japan, Inc.) with spontaneous hair loss in 70% or more of the body surface were used as donor mice. The donor mice were euthanized by cervical dislocation, and then the inguinal, axilla, and auricular lymph nodes were aseptically removed. The lymph nodes were filtered through a 70 μm cell strainer to isolate lymphocytes. The lymphocytes were washed with Advanced RPMI media (containing 10% fetal bovine serum, 2 mM Gluta Max, and 100 U/mL penicillin streptomycin), and then suspended in Advanced RPMI media to which Human rIL-2 (Roche; final concentration of 30 U/mL), Mouse rIL-7 (R&D systems, Inc.; final concentration of 25 ng/mL), and Mouse rIL-15 (R&D systems, Inc.; final concentration of 50 ng/mL) were added so that the concentration was 2×10^6 cells/mL. The lymphocytes were seeded in 1 mL portions on 24-well plates, and 500 μL of Dynabead mouse T-activator CD3/CD28 (Life Technologies) was added, followed by culture in a CO2 incubator. Culture was performed for 6 days so that the cell density was 1.5 to 2.0×10^6 cells/mL during culture.
The day of transplantation of lymphocytes derived from donor mice was regarded as Day 0. Two days before the day of transplantation (Day −2), hair on the back, which would be a transplantation site, of 10-week old female C3H/HeJ mice without hair loss (CLEA Japan, Inc.) was removed with an electric hair clipper under isoflurane anesthesia (1.5 cm×1.5 cm). Furthermore, grouping was performed using the body weight on Day −1 as an index.
On Day 0, lymphocytes in which beads were removed with EasySep magnet (Stemcell Technologies Inc.) were collected into new tubes. The collected lymphocytes were suspended in PBS(−) so that the concentration was 10×10^7 cells/mL, filled in a 1 mL syringe with a 26G injection needle, and stored on ice until transplantation. Under isoflurane anesthesia, the filled lymphocyte suspension was intradermally injected into the hair removal site in 100 μL/body portions. […]
On Day 63, photographs of the back and the abdomen of the mice were taken under isoflurane anesthesia. The status of hair loss was evaluated by partially modifying the method by Alli et al. (Journal of Immunology, 2012, Vol. 188, p. 477-486). In other words, the ratio of the area of hair loss site to the body surface area was scored in accordance with the criteria mentioned in Table 4, and defined as the hair loss score. […]

| SMILES | hair loss score (mean±standard error) [1] | hair loss score (mean±standard error) [2] | range of hair loss (FIG. 1) [2] |
| --- | --- | --- | --- |
| CN(CC(=O)N1CCCC[C@@H]1C(=O)Nc1ccc(-c2ccccc2OC(F)(F)F)c(Cl)c1)S(C)(=O)=O [Compound of Example 29, (R)—N-(2-chloro-2′-(trifluoromethoxy)-[1,1′-biphenyl]-4-yl)-1-(2-(N-methylmethylsulfonamide)acetyl)piperidine-2-carboxamide] | 4.3±1.41 | 1.3±0.67 | very smaller |
| O=C(Nc1ccc(-c2ccccc2OC(F)(F)F)c(Cl)c1)[C@H]1CCCCN1C(=O)Cn1cnnn1 [Compound of Example 57, (R)-1-(2-(1H-tetrazol-1-yl)acetyl)-N-(2-chloro-2′-(trifluoromethoxy)-[1,1′-biphenyl]-4-yl)piperidine-2-carboxamide] | 5.5±1.43 | 1.8±0.88 | very smaller |
